For the test, the target named is T1, Chk1 (Homo sapiens, UniProt O14757).
T1 construct: purchased Upstate Biotechnology
T1 sequence (O14757 1-476): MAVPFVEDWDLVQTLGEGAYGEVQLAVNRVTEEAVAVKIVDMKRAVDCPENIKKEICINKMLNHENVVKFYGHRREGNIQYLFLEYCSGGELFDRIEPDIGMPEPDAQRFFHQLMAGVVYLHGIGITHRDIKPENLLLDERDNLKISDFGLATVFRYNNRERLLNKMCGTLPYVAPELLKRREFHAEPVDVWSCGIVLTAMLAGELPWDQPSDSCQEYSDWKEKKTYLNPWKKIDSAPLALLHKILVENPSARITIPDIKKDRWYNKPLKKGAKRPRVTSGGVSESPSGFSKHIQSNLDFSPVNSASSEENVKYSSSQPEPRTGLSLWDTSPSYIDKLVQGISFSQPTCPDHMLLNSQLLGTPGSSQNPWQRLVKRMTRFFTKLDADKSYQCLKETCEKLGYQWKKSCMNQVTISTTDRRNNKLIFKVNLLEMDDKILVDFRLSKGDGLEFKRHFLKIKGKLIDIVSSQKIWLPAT
Kind of test: Chk1 kinase assay: incorporation of γ-33P ATP into immobilized myelin basic protein. Type of test: biochemical. The settings on record: 10 nM Chk1, 10 μM unlabeled ATP, 1 hour at room temperature; read-out: Chk1 inhibition, IC50. In a few lines:
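Radiometric filter-free format: Chk1 10 nM, 10 μM ATP; Chk2 20 nM, 30 μM ATP; γ-33P ATP tracer; immobilized MBP substrate; Hepes pH 7.6, 10 mM MgCl2, 1 mM DTT; 1 h RT; 1% DMSO. Scintillation counting of washed plates. IC50/Ki from curve fit.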

Some results are limits rather than exact numbers.

A word on the IC50: it is the concentration that gives 50% inhibition. For `NC(=O)c1nc(-c2cccc3ccccc23)cnc1N` [Example 2, 3-Amino-6-naphthalen-1-ylpyrazine-2-carboxamide], the IC50 was less than 50 nM.

Values taken from patent US7704995B2 (Exelixis, Inc., priority 2003, dated 2010).
